# ChEMBL document CHEMBL1201862, “PubChem BioAssay data set” (2004)
# Activity calls are given as the source filed them. For most assays here, no stated cut-off is given here; in the data, actives have a measured EC50 and inactives only a lower limit.
# Legend:
# [1] = NIH-3T3 fibroblast cytotoxicity, dose response, cytotoxicity control, cell-based, fluorescence, Alamar Blue, secondary assay (AID 2327); type: functional;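 further: NIH-3T3 mouse fibroblasts cultured with fluconazole at 8 µg/mL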
# [2] = fluconazole-exposed Candida albicans growth modulators – fluorescence, retest, confirmation (AID 2467); type: functional, cell-based
# [3] = molecular target: Voltage-dependent T-type calcium channel subunit alpha-1H (Homo sapiens, UniProt O95180); type: functional;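 further: channel activity triggered by adding a high calcium stimulation buffer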
# Voltage-dependent T-type calcium channel subunit alpha-1H, sequence (O95180 whole entry): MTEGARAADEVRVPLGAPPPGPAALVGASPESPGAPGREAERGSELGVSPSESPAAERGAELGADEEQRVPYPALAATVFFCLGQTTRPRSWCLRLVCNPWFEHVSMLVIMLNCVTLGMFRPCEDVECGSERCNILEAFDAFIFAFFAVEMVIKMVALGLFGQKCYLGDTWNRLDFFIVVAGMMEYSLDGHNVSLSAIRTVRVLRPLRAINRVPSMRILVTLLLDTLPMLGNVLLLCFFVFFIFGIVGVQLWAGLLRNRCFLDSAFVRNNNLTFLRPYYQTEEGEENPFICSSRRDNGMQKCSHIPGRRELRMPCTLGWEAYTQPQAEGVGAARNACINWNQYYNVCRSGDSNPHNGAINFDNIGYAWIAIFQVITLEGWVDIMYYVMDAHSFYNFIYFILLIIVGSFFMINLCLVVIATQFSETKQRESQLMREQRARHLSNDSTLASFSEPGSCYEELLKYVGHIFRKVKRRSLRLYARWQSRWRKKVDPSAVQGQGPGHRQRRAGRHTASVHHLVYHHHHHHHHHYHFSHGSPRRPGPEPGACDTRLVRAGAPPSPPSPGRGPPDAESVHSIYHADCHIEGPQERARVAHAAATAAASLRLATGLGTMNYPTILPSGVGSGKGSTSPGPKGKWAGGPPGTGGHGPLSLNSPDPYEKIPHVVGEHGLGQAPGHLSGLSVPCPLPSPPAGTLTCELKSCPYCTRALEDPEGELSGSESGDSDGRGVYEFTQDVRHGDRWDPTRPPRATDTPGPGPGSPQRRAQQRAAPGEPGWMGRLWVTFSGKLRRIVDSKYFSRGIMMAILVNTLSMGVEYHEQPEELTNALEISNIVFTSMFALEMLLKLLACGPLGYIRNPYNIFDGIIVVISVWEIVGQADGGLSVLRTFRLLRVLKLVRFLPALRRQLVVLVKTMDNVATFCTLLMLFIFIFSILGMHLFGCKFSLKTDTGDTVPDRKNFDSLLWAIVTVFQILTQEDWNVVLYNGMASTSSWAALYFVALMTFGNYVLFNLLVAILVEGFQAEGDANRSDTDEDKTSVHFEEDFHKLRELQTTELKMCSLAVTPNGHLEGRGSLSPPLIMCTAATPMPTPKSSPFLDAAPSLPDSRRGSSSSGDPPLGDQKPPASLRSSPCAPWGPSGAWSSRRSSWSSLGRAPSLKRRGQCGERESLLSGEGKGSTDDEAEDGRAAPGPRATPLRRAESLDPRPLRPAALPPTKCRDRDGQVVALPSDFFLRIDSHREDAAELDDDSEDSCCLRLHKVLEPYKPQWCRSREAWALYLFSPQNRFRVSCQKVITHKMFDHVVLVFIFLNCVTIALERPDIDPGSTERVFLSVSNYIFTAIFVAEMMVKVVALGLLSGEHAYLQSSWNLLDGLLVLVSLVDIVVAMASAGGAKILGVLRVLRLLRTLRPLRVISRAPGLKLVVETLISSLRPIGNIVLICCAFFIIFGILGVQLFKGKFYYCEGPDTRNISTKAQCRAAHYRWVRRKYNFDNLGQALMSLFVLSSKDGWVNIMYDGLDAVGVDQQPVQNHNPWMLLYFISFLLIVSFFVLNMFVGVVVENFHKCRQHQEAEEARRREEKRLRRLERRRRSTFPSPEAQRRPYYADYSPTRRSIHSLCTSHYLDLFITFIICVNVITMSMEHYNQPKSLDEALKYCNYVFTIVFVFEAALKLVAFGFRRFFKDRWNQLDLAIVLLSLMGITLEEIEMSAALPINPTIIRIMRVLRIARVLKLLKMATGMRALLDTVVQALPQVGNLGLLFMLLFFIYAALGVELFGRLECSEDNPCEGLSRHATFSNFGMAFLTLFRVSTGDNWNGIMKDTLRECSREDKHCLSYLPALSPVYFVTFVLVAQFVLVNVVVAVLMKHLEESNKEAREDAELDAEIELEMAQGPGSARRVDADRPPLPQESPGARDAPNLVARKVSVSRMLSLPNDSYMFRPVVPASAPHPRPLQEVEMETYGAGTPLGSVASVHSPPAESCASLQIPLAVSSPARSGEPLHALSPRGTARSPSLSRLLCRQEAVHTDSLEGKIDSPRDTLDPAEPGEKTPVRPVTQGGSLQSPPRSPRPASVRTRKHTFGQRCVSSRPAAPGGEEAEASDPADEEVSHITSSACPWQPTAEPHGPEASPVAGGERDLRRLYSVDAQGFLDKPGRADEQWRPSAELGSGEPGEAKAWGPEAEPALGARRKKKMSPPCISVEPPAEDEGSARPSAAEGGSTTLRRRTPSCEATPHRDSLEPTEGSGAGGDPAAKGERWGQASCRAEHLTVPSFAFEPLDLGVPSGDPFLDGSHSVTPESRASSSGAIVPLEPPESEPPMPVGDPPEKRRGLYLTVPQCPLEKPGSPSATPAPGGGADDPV
# [4] = Trypanosoma cruzi growth suppression in host cells – NIH3T3 host cells, beta-gal luminescence, confirmation (AID 2044); type: functional, cell-based;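 further: intracellular parasites grown in NIH/3T3 mouse fibroblasts as host cells; luminescent beta-galactosidase reporter signal from transgenic T. cruzi replicating inside host cells; inhibitors lower the luminescence signal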
# [5] = NIH3T3 cell viability loss – ATP luminescence, mouse fibroblasts, counter-screen, dose response (AID 2010); type: functional, cell-based;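 further: cells exposed to compound for about 90 hours before reading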
# [6] = system: INS1; assay: INS-1E survival protection against cytokine death – cell-based, luminescence, retest, dose response (AID 449756); type: functional; details: Rattus norvegicus;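 further: cell death triggered by IL-1 beta plus TNF-alpha plus IFN-gamma mixture; protective hits raise ATP signal compared with cytokine alone wells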
# [7] = Luminescence Cell-Based Dose Confirmation HTS to Identify Activators of 5'UTR Stem-Loop Driven Alpha-Synuclein mRNA Translation in H4 Neuroglioblastoma Cells. [Related pubchem assays: 1829 (Project Summary), 1814 (Primary HTS)]; type: functional
# [8] = Luminescence Cell-Based Dose Response HTS to Identify Activators of Luciferase Translation or Activity in H4 […] Cells. [Related pubchem assays: 1829 (Project Summary), 1814 (Primary HTS)]; type: functional
# [9] = system: H4; assay: Luminescence Cell-Based Dose Response HTS to Identify Activators of 5'UTR Stem-Loop Driven Prion Protein mRNA Translation in H4 Neuroglioblastoma Cells. [Related pubchem assays: 1829 (Project Summary), 1814 (Primary HTS)]; type: functional; details: Homo sapiens
# [10] = system: BJ; assay: BJ-TERT fibroblast viability loss – cell-based, RAS-independent, luminescence, dose response (AID 1933); type: functional; details: Homo sapiens
# [11] = system: BJ; assay: cells; type: functional, cell-based; details: Homo sapiens
# [12] = system: BJ; assay: BJ-TERT-LT-ST fibroblast viability loss – cell-based, RAS-independent, luminescence, dose response (AID 1935); type: functional; details: Homo sapiens;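 further: BJ fibroblasts immortalized with TERT plus LT and ST oncogenes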
# [13] = DRD fibroblast viability loss – cell-based, non-viral oncogenic, luminescence, dose response (AID 1934); type: functional; details: Homo sapiens
# [14] = molecular target: T1, Heat shock factor protein 1 (Mus musculus, UniProt P38532); assay: enhancement of HSF1-driven luciferase signal – cell-based, NIH3T3, luminescence, dose retest, confirmation (AID 435004); type: functional;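 further: stress induced by proteasome inhibitor MG132 added 30 min after compound; luciferase reporter driven by HSF1 response element in NIH3T3 cells; actives raise luminescence as potentiators of the MG132 stress response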
# T1 sequence (P38532 whole entry): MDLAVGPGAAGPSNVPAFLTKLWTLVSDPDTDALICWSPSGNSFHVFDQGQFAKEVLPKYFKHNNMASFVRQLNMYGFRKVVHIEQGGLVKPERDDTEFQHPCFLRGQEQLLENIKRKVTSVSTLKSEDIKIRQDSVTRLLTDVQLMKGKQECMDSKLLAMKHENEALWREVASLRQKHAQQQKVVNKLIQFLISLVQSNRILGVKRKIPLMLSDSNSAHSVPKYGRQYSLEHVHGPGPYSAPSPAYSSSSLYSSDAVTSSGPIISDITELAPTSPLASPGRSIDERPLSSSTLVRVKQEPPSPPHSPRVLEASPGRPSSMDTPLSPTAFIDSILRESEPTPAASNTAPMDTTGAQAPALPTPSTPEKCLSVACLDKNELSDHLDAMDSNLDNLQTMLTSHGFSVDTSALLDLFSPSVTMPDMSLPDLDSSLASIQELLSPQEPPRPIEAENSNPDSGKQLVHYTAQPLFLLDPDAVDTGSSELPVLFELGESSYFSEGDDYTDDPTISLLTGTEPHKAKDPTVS
# [15] = molecular target: T2, Caspase-6 (Homo sapiens, UniProt P55212); assay: inhibition of CASP6 peptide cleavage – biochemical, VEID-R110 fluorescence, cherry-pick, dose response (AID 720632)
# T2 sequence (P55212 whole entry): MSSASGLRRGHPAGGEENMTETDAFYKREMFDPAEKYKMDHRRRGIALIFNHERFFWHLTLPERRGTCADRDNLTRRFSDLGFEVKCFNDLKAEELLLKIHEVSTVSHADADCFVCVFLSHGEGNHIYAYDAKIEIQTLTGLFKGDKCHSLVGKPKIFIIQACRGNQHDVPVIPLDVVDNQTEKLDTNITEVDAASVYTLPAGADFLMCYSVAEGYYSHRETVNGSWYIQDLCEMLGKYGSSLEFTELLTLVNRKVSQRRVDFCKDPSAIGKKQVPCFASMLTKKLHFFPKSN
# [16] = molecular target: T3, Fatty acid synthase (Homo sapiens, UniProt P49327); assay: inhibition of human FAS-TE enzyme activity – biochemical, endpoint fluorescence intensity, uHTS hits, dose response (AID 624327); type: functional;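 further: fluorescence from hydrolysis of an O-methyl fluorescein acyl ester substrate by the enzyme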
# T3 sequence (P49327 whole entry): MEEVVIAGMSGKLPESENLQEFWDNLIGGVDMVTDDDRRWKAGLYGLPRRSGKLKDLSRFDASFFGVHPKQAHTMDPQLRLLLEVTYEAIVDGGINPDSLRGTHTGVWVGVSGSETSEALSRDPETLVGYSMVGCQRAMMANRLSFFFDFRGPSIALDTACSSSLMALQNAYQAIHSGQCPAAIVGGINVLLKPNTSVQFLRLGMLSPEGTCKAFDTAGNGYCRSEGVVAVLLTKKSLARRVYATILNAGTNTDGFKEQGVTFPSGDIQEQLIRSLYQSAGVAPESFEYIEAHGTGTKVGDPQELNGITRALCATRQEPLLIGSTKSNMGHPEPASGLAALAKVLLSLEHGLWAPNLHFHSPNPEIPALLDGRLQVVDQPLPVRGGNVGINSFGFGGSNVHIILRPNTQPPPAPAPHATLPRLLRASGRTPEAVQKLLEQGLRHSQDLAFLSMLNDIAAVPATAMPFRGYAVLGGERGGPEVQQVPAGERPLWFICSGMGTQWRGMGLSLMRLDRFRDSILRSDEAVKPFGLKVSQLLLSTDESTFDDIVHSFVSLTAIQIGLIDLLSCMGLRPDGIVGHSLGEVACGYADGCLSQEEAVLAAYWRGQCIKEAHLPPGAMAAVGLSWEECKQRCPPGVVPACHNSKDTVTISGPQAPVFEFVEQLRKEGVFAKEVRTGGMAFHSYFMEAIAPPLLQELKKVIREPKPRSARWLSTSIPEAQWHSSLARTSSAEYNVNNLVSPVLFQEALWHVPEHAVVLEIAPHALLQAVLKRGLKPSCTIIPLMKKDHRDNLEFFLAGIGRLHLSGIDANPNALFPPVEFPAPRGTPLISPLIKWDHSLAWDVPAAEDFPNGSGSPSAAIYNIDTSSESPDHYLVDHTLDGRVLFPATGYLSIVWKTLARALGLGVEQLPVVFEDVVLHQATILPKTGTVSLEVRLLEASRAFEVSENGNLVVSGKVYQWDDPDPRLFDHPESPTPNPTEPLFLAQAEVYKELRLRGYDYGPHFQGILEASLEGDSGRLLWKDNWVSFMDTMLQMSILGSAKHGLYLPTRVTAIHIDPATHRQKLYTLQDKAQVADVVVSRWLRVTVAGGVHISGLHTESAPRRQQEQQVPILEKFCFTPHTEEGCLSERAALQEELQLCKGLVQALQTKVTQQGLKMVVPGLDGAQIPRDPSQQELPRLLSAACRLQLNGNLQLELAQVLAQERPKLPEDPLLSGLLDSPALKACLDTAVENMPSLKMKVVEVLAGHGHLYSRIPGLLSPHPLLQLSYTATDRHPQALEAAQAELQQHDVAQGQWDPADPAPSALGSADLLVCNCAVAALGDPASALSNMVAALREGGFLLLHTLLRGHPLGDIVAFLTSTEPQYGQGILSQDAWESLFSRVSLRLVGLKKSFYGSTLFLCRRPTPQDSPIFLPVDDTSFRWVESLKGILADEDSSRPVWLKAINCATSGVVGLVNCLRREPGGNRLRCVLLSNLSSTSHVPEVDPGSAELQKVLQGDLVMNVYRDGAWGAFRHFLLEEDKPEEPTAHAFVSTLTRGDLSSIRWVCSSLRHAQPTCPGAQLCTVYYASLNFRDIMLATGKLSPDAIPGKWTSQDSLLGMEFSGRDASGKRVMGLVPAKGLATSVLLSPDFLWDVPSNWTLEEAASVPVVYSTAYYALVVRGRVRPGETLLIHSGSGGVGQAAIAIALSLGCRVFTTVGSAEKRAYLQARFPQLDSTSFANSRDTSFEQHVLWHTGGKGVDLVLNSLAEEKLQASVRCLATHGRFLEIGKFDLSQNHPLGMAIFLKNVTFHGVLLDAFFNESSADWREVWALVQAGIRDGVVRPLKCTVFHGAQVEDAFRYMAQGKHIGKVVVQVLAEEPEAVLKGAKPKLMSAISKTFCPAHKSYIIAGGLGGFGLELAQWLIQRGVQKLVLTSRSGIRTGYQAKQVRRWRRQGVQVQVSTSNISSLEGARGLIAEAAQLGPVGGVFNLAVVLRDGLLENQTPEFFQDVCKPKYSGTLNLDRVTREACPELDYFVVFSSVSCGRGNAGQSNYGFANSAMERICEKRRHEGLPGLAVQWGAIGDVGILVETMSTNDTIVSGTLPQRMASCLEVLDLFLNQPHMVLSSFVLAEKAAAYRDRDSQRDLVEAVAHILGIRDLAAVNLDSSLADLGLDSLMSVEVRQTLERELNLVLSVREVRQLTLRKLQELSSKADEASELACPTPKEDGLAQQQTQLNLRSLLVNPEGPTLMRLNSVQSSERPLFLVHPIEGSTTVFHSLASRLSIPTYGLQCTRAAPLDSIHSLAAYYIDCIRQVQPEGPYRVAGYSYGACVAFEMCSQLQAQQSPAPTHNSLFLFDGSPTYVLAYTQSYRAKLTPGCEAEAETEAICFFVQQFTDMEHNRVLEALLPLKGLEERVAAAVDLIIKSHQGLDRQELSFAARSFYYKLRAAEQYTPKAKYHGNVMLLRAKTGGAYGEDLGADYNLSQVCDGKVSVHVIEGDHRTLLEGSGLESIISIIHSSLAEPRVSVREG
# [17] = molecular target: T3, Fatty acid synthase; assay: inhibition of human FAS-TE enzyme activity – biochemical, kinetic fluorescence intensity, dose response (AID 624326); type: functional;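 further: rate of fluorescence rise from hydrolysis of a fluorogenic O-methyl fluorescein ester substrate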
# [18] = system: Streptococcus sp. 'group A'; assay: Streptococcus pyogenes SK(-)GAS viability under kanamycin – luminescence, BacTiterGlo, confirmation, counter-screen for streptokinase expression inhibitor project, dose response (AID 1900); type: functional, organism-based
# [19] = molecular target: T4, Streptokinase A (Streptococcus pyogenes serotype M1, UniProt P10520); assay: viability-normalized secreted streptokinase activity reduction – plasminogen activation absorbance, OD405, dose response (AID 1914); type: functional, Streptococcus pyogenes M1 GAS;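 further: secreted streptokinase activity via plasminogen activation per viability signal from cell pellet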
# T4 sequence (P10520 whole entry): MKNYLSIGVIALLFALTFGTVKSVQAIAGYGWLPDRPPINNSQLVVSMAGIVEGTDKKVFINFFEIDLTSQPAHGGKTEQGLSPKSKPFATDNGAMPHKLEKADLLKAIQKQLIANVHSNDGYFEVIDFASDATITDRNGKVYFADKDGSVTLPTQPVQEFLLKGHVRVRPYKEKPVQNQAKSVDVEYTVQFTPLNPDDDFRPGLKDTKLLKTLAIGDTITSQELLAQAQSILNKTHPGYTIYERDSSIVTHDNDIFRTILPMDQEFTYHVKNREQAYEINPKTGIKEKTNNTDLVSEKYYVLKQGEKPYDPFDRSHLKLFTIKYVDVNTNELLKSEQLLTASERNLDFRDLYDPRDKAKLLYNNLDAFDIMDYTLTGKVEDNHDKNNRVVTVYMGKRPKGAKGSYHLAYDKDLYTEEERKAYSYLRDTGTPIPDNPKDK
# [20] = system: Streptococcus; assay: GAS UMAA2166 growth inhibition – luminescence, BacTiterGlo, counter-screen for streptokinase expression inhibitor project, dose response (AID 1915); type: functional, organism-based;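 further: potency for reduction of bacterial viability or growth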
# [21] = system: SN12K1; assay: cells; type: functional; details: Homo sapiens
# [22] = system: P388; assay: cells; type: functional; details: Mus musculus
# [23] = system: P388/ADR; assay: cells; type: functional; details: Mus musculus
# [24] = blockers of HIV-1 envelope-mediated cell-cell fusion – cherry-pick, dose response (AID 652057); type: functional, cell-based
compound,measurement,setting,value
Cc1cc(Sc2nc(N)ncc2[N+](=O)[O-])ncn1,EC50,[1],4.19 µM (inconclusive)
same,EC50,[2],0.746 µM (active)
CC(NC(=O)CCC(=O)NC(C)C1COc2ccccc2O1)C1COc2ccccc2O1 (stereo unspecified),EC50,[3],4.07 µM (active)
Cc1ccc(C(CC(=O)NCc2ccco2)c2ccc(OC(C)C)cc2)cc1 (stereo unspecified),EC50,[3],15.9 µM (active)
CCCCCCCC[n+]1cccc2c3ccccc3ccc21,EC50,[1],69.2 µM (active)
same,EC50,[2],2.81 µM (active)
same,EC50,[4],0.161 µM (active)
same,EC50,[5],8.8 µM (active)
same,AC50,[6],0.268 µM (active)
O=C(NCc1ccco1)c1cc2c(s1)CCCCC2,EC50,[7],34 µM (active)
same,EC50,[8],41.9 µM (active)
same,EC50,[9],> 120 µM (not active)
CC(=O)c1ccc(Oc2ccc(C(=O)c3ccc(C)c(C)c3)cc2[N+](=O)[O-])cc1,EC50,[10],26.4 µM (active)
same,EC50,[11],> 150 µM (not active)
same,EC50,[12],> 150 µM (not active)
same,EC50,[13],> 150 µM (inconclusive)
CN1CCC(=NNC(=O)C(=O)Nc2ccc(F)cc2)CC1,EC50,[7],14.5 µM (active)
same,EC50,[8],23.6 µM (active)
same,EC50,[9],15 µM (active)
O=CNCCCc1nc2ccccc2n1Cc1cccc2ccccc12,EC50,[1],> 150 µM (inactive)
same,EC50,[2],4.77 µM (active)
O=C(OCC(=O)N1CCCC1=O)c1nc(Cl)c(Cl)c(Cl)c1Cl,EC50,[7],14.4 µM (active)
same,EC50,[8],> 120 µM (not active)
same,EC50,[9],> 120 µM (not active)
O=C(Nc1cccc(NC(=O)c2ccc(-c3ccc(Br)cc3)o2)c1)c1ccccc1,EC50,[3],19.1 µM (active)
COc1ccc(-c2noc(CCC(=O)N3CCN(c4cc(C)ccc4C)CC3)n2)cc1,EC50,[3],3.63 µM (active)
Cc1ccc(-c2nnc(SCC(C)C)n2C)cc1,EC50,[7],11.5 µM (active)
same,EC50,[8],88.6 µM (active)
same,EC50,[9],10.1 µM (active)
Sc1nc2cc(Cl)c3cccnc3c2o1,EC50,[1],> 150 µM (inactive)
same,EC50,[2],> 38 µM (not active)
same,EC50,[14],> 260 µM (inactive)
Cc1nc2c(-c3ccc(F)cc3)c(C)nn2c(C)c1CCC(=O)N1CCN(c2ccc(F)cc2)CC1,EC50,[3],5.21 µM (active)
Cc1cc(C)c(NS(=O)(=O)c2cccc3cccnc23)c(C)c1,EC50,[1],38.5 µM (active)
same,EC50,[2],> 38 µM (not active)
O=C(COC(=O)c1ccc([N+](=O)[O-])o1)Nc1ncc(Cl)cc1Cl,AC50,[15],28.3 µM (active)
CCSc1nc2ccccc2n1CCOc1ccccc1,EC50,[3],18.2 µM (active)
Cc1ccc(C(=O)Cn2c(-c3ccccc3)noc2=O)cc1,EC50,[7],13.1 µM (active)
same,EC50,[8],12.4 µM (active)
same,EC50,[9],15 µM (active)
O=C1CC(N2CCN(c3ccc(S(=O)(=O)N4CCOCC4)cc3)CC2)C(=O)N1Cc1ccccc1 (stereo unspecified),IC50,[16],8.79 µM (active)
same,IC50,[17],7.53 µM (active)
O=C(O)CSc1nc2sc3c(c2c(=O)n1Cc1ccccc1)CCCCC3,EC50,[7],> 60 µM (not active)
same,EC50,[8],15.6 µM (active)
same,EC50,[9],16.4 µM (active)
O=C(Nc1cc([N+](=O)[O-])ccc1O)c1ccc2c(c1)C(=O)N(Cc1ccco1)C2=O,AC50,[15],18.5 µM (active)
COc1ccc(-n2c(C)cc(/C=C/c3nc(O)c([N+](=O)[O-])c(O)n3)c2C)cc1,AC50,[15],18.8 µM (active)
COc1ccc(CC(=N)NOC(=O)c2cccc([N+](=O)[O-])c2)cc1,IC50,[16],18.3 µM (active)
same,IC50,[17],14.6 µM (active)
NC(S)=NNc1cccc(Cl)c1,EC50,[1],> 160 µM (inactive)
same,EC50,[2],> 38 µM (not active)
COc1cccc(NC(=O)CN2C(=O)COc3ccc(S(=O)(=O)N4CCC(C)CC4)cc32)c1,EC50,[14],> 260 µM (inactive)
same,IC50,[16],7.97 µM (active)
same,IC50,[17],6.57 µM (active)
O=C(CC1C[C@H](C(=O)N2CCOCC2)[C@@]2(CCC3CCCC3)c3[nH]c4ccccc4c3CCN2C1=O)NCCCn1ccnc1 (stereo partly specified),IC50,[16],4.37 µM (active)
same,IC50,[17],2.7 µM (active)
[O-][n+]1c2ccccc2[n+]([O-])c2cc(O)ccc21,EC50,[18],7.97 µM (active)
same,EC50,[19],> 150 µM (not active)
same,EC50,[20],17.3 µM (active)
same,AC50,[15],6.89 µM (active)
Nc1ncc2c(n1)-c1ccccc1OC2,GI50,[21],> 100 µM (inactive)
same,GI50,[22],> 100 µM (inactive)
CN(C)CCNC(=O)c1cccc2c1C(=O)c1ccccc1C2=O,GI50,[23],20.8 µM (inactive)
same,GI50,[21],49.5 µM (inactive)
same,GI50,[22],19.7 µM (inactive)
CC(/C=N/N=C(N)N)=N\N=C(N)N,GI50,[23],0.519 µM (active)
same,GI50,[21],2.17 µM (inactive)
same,GI50,[22],0.25 µM (active)
CC1=CC2c3cccc4[nH]cc(c34)CC2N(C)C1 (stereo unspecified),GI50,[23],14.2 µM (inactive)
same,GI50,[21],27.2 µM (inactive)
same,GI50,[22],31 µM (inactive)
Cc1c2c(cc3c1[nH]c1ccccc13)C(c1ccc(F)cc1)=NCC2,GI50,[23],0.448 µM (active)
same,GI50,[21],0.925 µM (active)
same,GI50,[22],0.809 µM (active)
O=S(=O)(O)c1cc2ccc1/C=C\c1ccc(cc1S(=O)(=O)O)/N=N\c1ccc(c(S(=O)(=O)O)c1)/C=C\c1ccc(cc1S(=O)(=O)O)/N=N\2,GI50,[23],> 100 µM (inactive)
same,GI50,[21],> 100 µM (inactive)
same,GI50,[22],> 100 µM (inactive)
CC(C)CC#Cc1ccc2c(c1)O[C@@H](CN(C)C(=O)C1CCCCC1)[C@H](C)CN([C@@H](C)CO)S2(=O)=O,AC50,[24],27.8 µM (active)
COc1cc([C@@H]2c3cc4c(c(O[C@@H]5O[C@H]6CO[C@@H](C)O[C@H]6[C@H](O)[C@@H]5O)c3C[C@H]3COC(=O)[C@@H]32)OCO4)cc(OC)c1O,GI50,[21],10.9 µM (inactive)
same,GI50,[22],2.16 µM (inactive)
COC1C(O)CC(OC2CC(Oc3cc4cc5c(c(O)c4c(O)c3C)C(=O)[C@@H](OC3CC(OC4CC(OC6CC(C)(O)C(OC(C)=O)C(C)O6)C(O)C(C)O4)C(O)C(C)O3)[C@H]([C@H](OC)C(=O)[C@@H](O)[C@@H](C)O)C5)OC(C)C2OC(C)=O)OC1C (stereo partly specified) [CHROMOMYCIN],GI50,[23],0.132 µM (active)
same,GI50,[21],0.0034 µM (active)
CCCCC/C=C\C/C=C\C/C=C\CCCCC(=O)O [GAMOLENIC ACID],AC50,[15],0.505 µM (active)
CC1CCC(NC(=O)N(CCCl)N=O)CC1 (stereo unspecified) [SEMUSTINE],EC50,[7],5.98 µM (active)
same,EC50,[8],24 µM (active)
same,EC50,[9],16.2 µM (active)
